Assay [1] concerns Human platelet rich plasma. In words: TP receptor platelet aggregation, human (U-46619-induced). It is filed as cell-based. Conditions: 3 μM U-46619-induced. Here is the method: (§1) Thrombosis Research 33:277-288.
TP Receptor Platelet Aggregation—Human:
Human (60±10 kg) platelet rich plasma
Assay. Inhibition of 3 μM U-46619-induced platelet aggregation Incubation Time, Temp: 5 minutes at 37° C. Incubation Buffer Trisodium Citrate (0.13 M)-treated fresh platelet rich plasma
(§2) Time of Assessment: 5 minutes
(§3) Quantification Method Optical Density Change

Assay [2] has as its target T1, Thromboxane receptor (TP) (Homo sapiens, UniProt P21731).
T1 construct: expressed in transfected cells; host or cells: HEK-293
T1 sequence (P21731 1-343): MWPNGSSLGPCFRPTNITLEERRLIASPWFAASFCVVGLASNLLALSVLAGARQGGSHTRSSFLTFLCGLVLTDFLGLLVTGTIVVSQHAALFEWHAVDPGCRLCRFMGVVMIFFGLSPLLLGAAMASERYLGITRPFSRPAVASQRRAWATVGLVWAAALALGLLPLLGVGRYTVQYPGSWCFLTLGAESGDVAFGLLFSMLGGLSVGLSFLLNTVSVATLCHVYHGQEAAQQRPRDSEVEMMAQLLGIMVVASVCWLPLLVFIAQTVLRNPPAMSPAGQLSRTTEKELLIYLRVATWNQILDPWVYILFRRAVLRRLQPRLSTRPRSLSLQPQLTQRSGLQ
Put plainly: TP receptor radioligand binding ([3H] SQ-29548). Conditions: Human recombinant HEK-293 cells. How it is done: The compounds were tested on radioligand binding assays for thromboxane receptor binding essentially as described by Hedberg et al. (1988) J. Pharmacol. Exp. Ther. 245:786-792 and Saussy et al. (1986) J. Biol. Chem. 261: 3025-3029 according to the following:
TP Receptor Radioligand Binding Studies:
Human recombinant HEK-293 cells,
Incubation Time, Temp: 30 minutes at 25° C.
Incubation Buffer: 50 mM Tris-HCl, pH 7.4, 154 mM NaCl
Non-Specific Ligand: 1 μM SQ-29548
The data were transformed to semi-log and then analysed using non-linear regression to a four-parameter dose-response curve Y=Bottom+(Top−Bottom)/(1+10̂((LogEC50−X)*HillSlope)) using the log(agonist) vs. response—Variable slope function of GraphPad Prism software (http://graphpad.com/help/prism5/prism5help.html?usitignonlinear_regression_step_by_s.htm).

Another assay deals with T2, Thromboxane synthase (Homo sapiens, UniProt P24557).
T2 construct: Human Platelet Thromboxane Synthase Assay; from tissue; host or cells: human platelets
T2 sequence (P24557 1-533): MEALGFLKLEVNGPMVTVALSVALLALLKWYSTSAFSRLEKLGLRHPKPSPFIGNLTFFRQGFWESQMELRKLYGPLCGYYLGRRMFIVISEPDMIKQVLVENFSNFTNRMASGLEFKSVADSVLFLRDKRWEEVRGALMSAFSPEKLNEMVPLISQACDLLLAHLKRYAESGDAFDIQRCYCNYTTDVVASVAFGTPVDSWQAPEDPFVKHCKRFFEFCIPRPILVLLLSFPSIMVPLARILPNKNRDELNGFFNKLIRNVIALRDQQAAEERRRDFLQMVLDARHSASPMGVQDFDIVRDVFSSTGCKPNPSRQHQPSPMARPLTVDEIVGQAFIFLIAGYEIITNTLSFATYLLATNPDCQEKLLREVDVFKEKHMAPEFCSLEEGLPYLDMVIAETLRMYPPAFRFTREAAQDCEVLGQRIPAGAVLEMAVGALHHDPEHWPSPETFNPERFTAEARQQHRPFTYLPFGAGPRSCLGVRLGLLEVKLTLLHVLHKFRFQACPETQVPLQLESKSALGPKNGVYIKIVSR
Put plainly: Human platelet thromboxane synthase assay. In kind it is biochemical. How it is done: The compounds were tested for thromboxane synthase inhibition essentially as described by Borsch-Haubold A G, Pasquet S, Watson S P. (1998) Direct inhibition of cyclooxygenase-1 and -2 by the kinase inhibitors SB 203580 and PD 98059. […] 1. Imidazole derivatives. J Med. Chem. (10):1139-48 according to the following:
Pre-incubation time, temp: 15 minutes at 25° C. Incubation time, temp: 3 minutes at 25° C.
Incubation Buffer: 10 mM Tris-HCl, pH 7.4
Quantification Method: EIA quantification of TxB2

Assay [3] has as its target T3, Human Recombinant (E. coli) PPARgamma (Homo sapiens, UniProt P37231).
T3 construct: host or cells: E. coli
T3 sequence (P37231 1-505): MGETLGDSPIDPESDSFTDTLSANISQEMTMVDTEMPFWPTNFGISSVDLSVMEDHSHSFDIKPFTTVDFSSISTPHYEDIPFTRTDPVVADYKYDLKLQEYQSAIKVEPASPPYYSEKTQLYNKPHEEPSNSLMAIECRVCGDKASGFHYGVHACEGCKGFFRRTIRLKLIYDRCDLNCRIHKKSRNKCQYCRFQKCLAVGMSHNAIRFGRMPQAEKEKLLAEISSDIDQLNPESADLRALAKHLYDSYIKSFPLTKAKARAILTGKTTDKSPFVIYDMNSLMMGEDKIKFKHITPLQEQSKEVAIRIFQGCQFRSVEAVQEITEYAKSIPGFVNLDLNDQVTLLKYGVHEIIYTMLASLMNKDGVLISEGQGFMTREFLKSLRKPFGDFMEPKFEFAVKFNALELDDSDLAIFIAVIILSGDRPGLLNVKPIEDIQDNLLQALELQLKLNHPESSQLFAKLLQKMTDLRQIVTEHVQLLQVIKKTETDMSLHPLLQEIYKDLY
In words: PPAR gamma binding assay ([3H]-rosiglitazone). To be noted: for Ki / IC50: [3H]-rosiglitazone 10 nM; for Ki: Cheng Prusoff, read-out: PPARγ binding Ki; for IC50: read-out: PPARγ binding IC50. How it is done: Incubation: 120 min. at 4° C.
The results are expressed as a percent of control specific binding ((measured specific binding/control specific binding)×100) obtained in the presence of the test compounds. The IC50 values (concentration causing a half-maximal inhibition of control specific binding) and Hill coefficients (nil) were determined by non-linear regression analysis of the competition curves generated with mean replicate values using Hill equation curve fitting (Y=D+[(A−D)/(1+(C/C50)nH)], where Y=specific binding, D=minimum specific binding, A=maximum specific binding, C=compound concentration, C50=IC50, and nH=slope factor). This analysis was performed using a software developed at Cerep (Hill software) and validated by comparison with data generated by the commercial software SigmaPlot® 4.0 for Windows® (© 1997 by SPSS Inc.). The inhibition constants (Ki) were calculated using the Cheng Prusoff equation (Ki=IC50/(1+(L/KD)), where L=concentration of radioligand in the assay, and KD=affinity of the radioligand for the receptor).

Assay [4] deals with New Zealand Rabbit platelet rich plasma. In words: TP receptor platelet aggregation, rabbit (U-46619-induced). It is filed as cell-based. Here is the method:
as §1
TP Receptor Platelet Aggregation—Rabbit:
New Zealand Rabbit (2.75±0.25 kg) platelet rich plasma
Assay: Inhibition of 1.5 μM U-46619-induced platelet aggregation Incubation Time, Temp: 5 minutes at 37° C. Incubation Buffer Trisodium Citrate (0.13 M)-treated platelet rich plasma
as §2, §3

The test system of assay [5] is arterial thrombosis in a mouse model. Put plainly: Arterial thrombosis mouse model (FeCl3 on femoral artery). In kind it is in vivo. Conditions: dose not given. How it is done:
The solutions are diluted 3.3-fold in saline and 100 μl/25 g is injected. Thus, the above-mentioned doses of 100 and 300 mg/kg of compound correspond to final doses of 30 and 100 mg/kg.
During the experiments, a soluble salt of the drug is provided (potassium salt of compound C), diluted in saline. Of this formulation, 100 μl/25 g is injected i.v. in the tail vein (dose of 100 mg/kg).
Solutions are injected (100 μl/25 g body weight) i.v. in the tail vein over 2 min to obtain doses of each compound of 30 mg/kg and 100 mg/kg. Aspirin is given the same way at a dose of 200 mg/kg. Clopidogrel is administered by oral gavage at a dose of 20 mg/kg at 6-7 hours prior to the experiment. The animals assigned to each group are matched for body weight. Mice are typically 8-10 weeks old males and are in a 100% Swiss genetic background.
The flow in each image is expressed as a percentage of that at the contralateral side, and data are averaged for all 120 images to determine total flow. The same analysis is performed for 10 min intervals (which gives essentially the same information as the area under the curve). […] Flow before treatment is recorded as 100%, and that in occluded arteries as 0%. At the end of the experiment, blood is collected on 0.01M citrate by heart puncture for determination of blood cell counts. Plasma is prepared by centrifugation and stored at −20° C. for determination of drug levels.
Statistical analysis for differences between two groups is performed by non-parametric Student t-test. Occlusion times >30 min were considered equal to 30 min for statistical analysis. Significance is set at p<0.05.

For the compound `O=C(O)CC/C=C\CC1COC(c2ccccc2Cl)OC1c1ccccc1O` (racemic) [Compound A, (Z)-6-(-2-(2-chlorophenyl)-4-(2-hydroxyphenyl)-1,3-dioxan-5-yl)hex-4-enoic acid], the IC50 came out at 1500 nM in assay [1], 31900 nM against Thromboxane synthase and 13000 nM in assay [3]. Moreover, the inhibition at 10 µM stood at 105% in assay [2] and 16% at Thromboxane synthase (10 μM). In assay [3], the Ki stood at 4800 nM.

In the case of `COc1ccc(Oc2ccccc2C2OC[C@@H](C/C=C\CCC(=O)O)[C@@H](c3ccccc3O)O2)cc1` (stereo partly drawn) [Compound 1], in assay [4] (Oryctolagus cuniculus, Platelet, 30 μM, 1.5 μM U-46619-induced), the inhibition at 30 µM was 96%. Further, the “Inhibition of platelet aggregation (in words)” value in assay [4] (Table 2) is reported as “potent inhibitors of platelet aggregation”. The inhibition at 10 µM in assay [2] came out at 101%. For the same compound, in assay [2] (5 nM [3H] SQ-29548), the 50% inhibitory concentration (IC50) was 1.25 nM and the inhibition constant (Ki) was found to be 0.82 nM. At Thromboxane synthase, this compound showed an IC50 of 354 nM. Also, the inhibition at 5 µM on Thromboxane synthase (5 μM) came to 71%. Further, at Thromboxane synthase (Table 2), the “Inhibition of thromboxane synthase (in words)” value was “inhibitors of thromboxane synthase”. Also, in assay [5], the Occlusion time result is listed as “prolongs the occlusion time” and the Total blood flow entry is on record as “improves total blood flow”. Besides, in assay [3], the Ki was 800 nM and the half-maximal inhibitory concentration (IC50) turned out to be 2300 nM. Moreover, the “PPARgamma binding compared with Compound A (in words)” value in assay [3] (summary of Table 3) is given as “at least as well as Compound A”.

In the case of `O=C(O)CC/C=C\C[C@H]1CO[C@@H](c2ccccc2Cl)O[C@H]1c1ccccc1O` [Compound B, (Z)-6-((2R,4R,5S)-2-(2-chlorophenyl)-4-(2-hydroxyphenyl)-1,3-dioxan-5-yl)hex-4-enoic acid], the inhibition at 30 µM in assay [1] (30 μM) was found to be 13%. In addition, the inhibition at 100 µM in assay [4] (Oryctolagus cuniculus, Platelet, 0.1 mM, 1.5 μM U-46619-induced) amounted to 15%. Moreover, on Thromboxane synthase (10 μM), the “Thromboxane synthase Human platelet Inhibition (%)” value stood at 28% and the inhibition at 10 µM amounted to 25%. Further, in assay [3] (at 30 μM), the “PPARγ binding (in words)” value is listed as “no binding”.

A word on the IC50: it is the concentration that gives 50% inhibition. The inhibition is the change of the read-out against control, counted positive when it falls. As a reminder, the Ki is the dissociation constant of the complex between target and ligand, obtained from inhibition or displacement.
